Experimental data published in patent US10513534B2, “2′-chloro nucleoside analogs for HCV infection” (priority 2012, dated 2019).
Like-named read-outs stand apart in the source and are kept apart here.

Assays:
[1] = Plasma nucleoside pharmacokinetics after single oral dose in CD-1 mice; format: in vivo; conditions: single oral dose 10 mg/kg in PEG 200;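 for Ms Plasma nucleoside AUC: pmol·h/mL plasma normalized to a 1 µmol/kg dose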
Experimental: Plasma samples were analyzed for nucleoside by LC-MS/MS. The internal standard (IS) was either 2′-MeG-D3 or tiapride. For protein precipitation and extraction, each plasma sample (50 μL) was treated with 500 μL of 0.2% formic acid in acetonitrile and 20 μL of the internal standard working solution. After vortexing and centrifugation, 500 μL of the sample extracts were transferred to a new plate, dried under N2 at ˜28° C. and reconstituted with 75 μL of 0.2% FA in water. The extracts were chromatographed on an Aquasil C18 column using a gradient system of 0.2% formic acid in water and acetonitrile. The analytes were detected and quantified by tandem mass spectrometry in positive ion mode on an MDS Sciex API5000 equipped with a Turbo Ionspray® interface. The calibration range was 0.500 (LLOQ) to 200 ng/mL in mouse plasma.

in vitro = conditions: human
[2] = Liver triphosphate pharmacokinetics after single oral dose in CD-1 mice; format: in vivo; set-up: key: + ≤ 15; 15 < ++ ≤ 50; 50 < +++ ≤ 100; 100 < ++++; BLQ = below limit of quantitation; conditions: single oral dose 10 mg/kg in PEG 200;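 for Ms Liver TP AUC: pmol·h/g liver normalized to a 1 µmol/kg dose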;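 for Ms Liver TP Cmax: pmol/g liver normalized to a 1 µmol/kg dose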
Experimental: Internal standard solution was added to the homogenate followed by neutralization with 20% ammonium hydroxide solution and addition of 500 μL 1% formic acid. The tissue samples were extracted by weak anion exchange solid phase extraction (SPE). Post extraction, the eluates were evaporated under nitrogen, followed by reconstitution before injection onto the LC-MS/MS system.

HCV genotype 1b replicon = assay: HCV replicon assay (Zluc luciferase); format: cell-based; conditions: Zluc cells, 72 hours, read-out: HCV Replicon EC50
Experimental: Huh-7-derived cell line (Zluc) that harbors an HCV genotype 1b replicon and a luciferase reporter gene was grown in Dulbecco's Modified Eagle Medium (DMEM) supplemented with 10% fetal bovine serum, 2 mM GlutaMAX, 1% MEM nonessential amino acids, 100 IU/mL penicillin, 100 μg/mL streptomycin, and 0.5 mg/mL Geneticin® (G418). For dose response testing the cells were seeded in 96-well plates at 7.5×10^3 cells per well in a volume of 50 μL, and incubated at 37° C./5% CO2. Drug solutions were made up freshly in Huh-7 media as 2× stocks. Ten additional 5-fold dilutions were prepared from these stocks in DMEM without G418. At least three hours after Zluc cells were seeded, drug treatment was initiated by adding 50 μL of drug dilutions to the plates in duplicate. Final concentrations of drug ranged from 100 μM to […]. Cells were then incubated at 37° C./5% CO2. Alternatively, compounds were tested at two concentrations (1 μM and 10 μM). […] For this, media was removed from the plates via gentle tapping. Fifty microliters of ONE-glo luciferase assay reagent was added to each well. The plates were shaken gently for 3 min at room temperature and luminescence was measured on a Victor^3 V 1420 multilabel counter (Perkin Elmer) with a 1 second read time using a 700 nm cut-off filter. The EC50 values were calculated from dose response curves from the resulting best-fit equations determined by Microsoft Excel and XLfit 4.1 software. When screening at two fixed concentrations, the results were expressed as % inhibition at 1 μM and 10 μM.

[3] = Stability in intestinal microsomes; format: in vitro ADME; conditions: human intestinal microsomes 1.0 mg/mL, 10 μM, NADPH, 60 min
Experimental: (§1) Stability of test compounds were determined in human liver and intestinal microsomes in duplicate for each matrix. Pooled liver and intestinal microsomal proteins (1.0 mg/mL), suspended in incubation buffer (100 mM potassium phosphate, pH 7.4, 5 mM MgCl2, and 0.1 mM EDTA), were preincubated for 5 min at 37° C. with 10 μM of a test compound from a 10 mM stock solution in DMSO (final DMSO concentration was 0.1%); the reaction was initiated by the addition of NADPH (3 mM final concentration). At specific times (0 and 60 min), 0.1 mL samples were taken and the reaction terminated by the addition of 4 volumes of stop solution (acetonitrile with 500 ng/mL carbutamide as an internal standard). The samples were vortexed for 30 sec and then centrifuged at 16000×g for 10 min. 100 μL of supernatants were transferred to 96 deep-well plates preloaded with 100 μL distilled water and analyzed after mixing by LC-MS/MS. The MS peak area ratio of the test compound versus the internal standard was calculated and percent unchanged test compound over 60 minutes was calculated using this ratio.

[4] = Stability in liver microsomes; format: in vitro ADME; conditions: human liver microsomes 1.0 mg/mL, 10 μM, NADPH, 60 min
Experimental: as §1

Huh-7 cells = assay: Release of active metabolite in Huh-7 cells; format: in vitro ADME
Experimental: Huh-7 cells were plated in 1 mL culture medium (DMEM, containing glucose, L-glutamine and sodium pyruvate, 10% FBS, 100 IU/mL penicillin, 100 μg/mL streptomycin, 2 mM GlutaMAX, 1% MEM non-essential amino acids) at the concentration 0.8, 0.4 and 0.2 million cells per well on 6 well plates for 24, 48 and 72 hr treatment, respectively. Plated cells were incubated overnight at 37° C. in an incubator.
The following morning test compound was diluted to 20 μM from a stock solution in DMSO in fresh culture medium pre-warmed to 37° C. and 1 mL of the solution/well was added to cells. A final medium volume per well was 2.0 mL, test compound concentration in well was 10 μM and final DMSO concentration was 0.1%.
After 24, 48 or 72 hr, the medium was carefully removed and cell monolayers were washed twice with 2 mL ice-cold PBS per well. Following the last wash, all PBS was carefully removed and 1.0 mL of extraction solution (ice-cold 70% methanol) added. The plate was tightly covered with Parafilm, plastic plate cover and Parafilm again and an intracellular content was extracted at −20° C. for 24 hr.
After 24 hr the extracts were transferred into polypropylene microfuge tubes and dry on a refrigerated centrivap concentrator. Dry residues were reconstituted in 250 μL of HPLC-grade water and centrifuged at 16,000×g for 10 min. Aliquots (100 μL each) of the supernatants were transferred into a 96 well plate and internal standard (4 ng/mL final concentration) was added as the internal standard (IS) for LC-MS/MS analysis.

fresh mouse hepatocytes = assay: Release of active metabolite in fresh mouse hepatocytes; format: in vitro ADME; conditions: 10 μM
Experimental: Plates of fresh human and mouse hepatocytes were obtained on ice. The medium was removed and replaced with hepatocyte culture medium (William's E supplemented with penicillin-streptomycin, 1% L-glutamine, 1% insulin-transferrin-selenium and 0.1 μM Dexamethasone (Invitrogen) or with Invitro GRO HI medium complemented with Torpedo antibiotics (Celsis)). Cells were left overnight in an incubator at 37° C. to acclimatize to culture and the medium.
Hepatocyte incubations were conducted at a final volume of 0.5 mL hepatocyte culture medium/well (0.8 million cells/well for human and 0.5 million cells/well for mouse; 12 well plate no overlay, collagen coat). Culture medium from overnight incubation of cells was removed and replaced with fresh medium, pre-warmed to 37° C., containing 10 μM of test compound from a stock solution in DMSO (final DMSO concentration was 0.1%). At each specific time point, incubation medium was removed and cell monolayers were carefully washed two times with ice-cold PBS. Following the last wash, all PBS was carefully removed and 1.0 mL of extraction solution (ice-cold 70% methanol/30% water) added. Cells were scraped off and suspended in the extraction solution, transferred to 2 mL polypropylene microfuge tubes and intracellular contents extracted overnight at −20° C.
After the overnight treatment the cellular extracts were prepared by centrifugation at 16,000×g for 10 min to remove cellular debris. The remaining sample was then dried using a refrigerated centrivap concentrator. Dry extracts were reconstituted in 1000 μL of HPLC-grade water and centrifuged at 16,000×g for 10 min. Aliquots (100 μL each) of the supernatant were transferred into a 96 well plate and internal standard (4 ng/mL final concentration) was added as the internal standard (IS) for LC-MS/MS analysis.
The incubation time points were 6, 24 and 48 hours for human hepatocytes and 1, 4, 8, 12 and 24 hours for mouse hepatocytes.

Row | Structure (SMILES) | Ms Plasma nucleoside AUC [1] | Ms Plasma nucleoside Cmax [1] | CC50 (in vitro) [µM] | Ms Liver TP AUC [2] | Ms Liver TP Cmax [2] | EC50 (HCV genotype 1b replicon; Hepatitis C virus, 72 h) [µM] | HIM (1 hr) stability (percent remaining) [3] | EC50 (HCV genotype 1b replicon) [µM] | HLM (1 hr) stability (percent remaining) [4] | Huh-7 TP AUC (Huh-7 cells; 10 μM) | Huh-7 TP Cmax (Huh-7 cells; 10 μM test compound) | Huh-7 TP (24 hr) (Huh-7 cells; 10 μM, 24 hr) | Huh-7 TP (48 hr) (Huh-7 cells; 10 μM, 48 hr) | Huh-7 TP (72 hr) (Huh-7 cells; 10 μM, 72 hr) | MsH AUC (fresh mouse hepatocytes) | MsH Cmax (fresh mouse hepatocytes)
1 | CC(C)OP1(=O)OC[C@H]2O[C@@H](n3ccc(=O)[nH]c3=O)[C@](C)(Cl)[C@@H]2O1 (single isomer, unassigned) [Compound 37 Diastereomer 1] | +++ (500 < +++ ≤ 1500) | +++ (50 < +++ ≤ 100) | > 50 | ++++ (1500 < ++++) | ++++ (100 < ++++) | 1 to 10 |  |  |  |  |  |  |  |  |  | 
2 | CC(C)OC(=O)[C@H](C)NP(=O)(OC[C@H]1O[C@@H](n2ccc(=O)[nH]c2=O)[C@](C)(Cl)[C@@H]1O)Oc1ccccc1 (single isomer, unassigned) [Compound 40ii Diastereomer 1] | +++ (500 < +++ ≤ 1500) | +++ (50 < +++ ≤ 100) | > 50 | +++ (500 < +++ ≤ 1500) | +++ (50 < +++ ≤ 100) |  | +++ (50% < +++ ≤ 75%) | 1 to 10 | + (+ ≤ 25%) | ++++ (1500 < ++++) | ++++ (100 < ++++) | ++ (15 < ++ ≤ 50) | +++ (50 < +++ ≤ 100) | ++++ (100 < ++++) |  | 
3 | CC(C)(C)C(=O)SCCOP1(=O)OC[C@H]2O[C@@H](n3ccc(N)nc3=O)[C@](C)(Cl)[C@@H]2O1 (single isomer, unassigned) [Compound 61 Diastereomer 1] | + (+ ≤ 150) | ++++ (100 < ++++) | > 50 | +++ (500 < +++ ≤ 1500) | +++ (50 < +++ ≤ 100) | < 0.25 |  |  |  |  |  |  |  |  |  | 
4 | CCOC(=O)NCC(C)(C)C(=O)SCCOP1(=O)OC[C@H]2O[C@@H](n3ccc(=O)[nH]c3=O)[C@](C)(Cl)[C@@H]2O1 (single isomer, unassigned) [Compound 70 Single Diastereomer] | ++++ (1500 < ++++) | ++++ (100 < ++++) | > 50 | ++++ (1500 < ++++) | ++++ (100 < ++++) | < 0.25 |  |  |  |  |  |  |  |  |  | 
5 | CC(C)(C)C(=O)SCCOP1(=O)OC[C@H]2O[C@@H](n3ccc(=O)[nH]c3=O)[C@](C)(Cl)[C@@H]2O1 (single isomer, unassigned) [Compound 201 Single Diastereomer] | +++ (500 < +++ ≤ 1500) | +++ (50 < +++ ≤ 100) | > 50 | ++++ (1500 < ++++) | ++++ (100 < ++++) | < 0.25 |  |  |  |  |  |  |  |  |  | 
6 | CCCCOC(=O)[C@@H](C)NP(=O)(OC[C@H]1O[C@@H](n2ccc(=O)[nH]c2=O)[C@](C)(Cl)[C@@H]1O)Oc1ccccc1 (single isomer, unassigned) [Compound 202i Diastereomer 1] | ++++ (1500 < ++++) | ++++ (100 < ++++) | > 50 | ++++ (1500 < ++++) | ++++ (100 < ++++) |  |  | 1 to 10 |  |  |  |  |  |  |  | 
7 | C[C@@H](NP(=O)(OC[C@H]1O[C@@H](n2ccc(=O)[nH]c2=O)[C@](C)(Cl)[C@@H]1O)Oc1ccccc1)C(=O)OCc1ccccc1 (single isomer, unassigned) [Compound 205i Diastereomer 1] | +++ (500 < +++ ≤ 1500) | +++ (50 < +++ ≤ 100) | > 50 | ++++ (1500 < ++++) | ++++ (100 < ++++) |  |  | 1 to 10 |  |  |  |  |  |  |  | 
8 | CC(C)OC(=O)[C@@H](C)NP(=O)(OC[C@H]1O[C@@H](n2ccc(=O)[nH]c2=O)[C@](C)(Cl)[C@@H]1O)Oc1ccccc1 (single isomer, unassigned; diastereomer 2) [Compound 40i Diastereomer 2] | +++ (500 < +++ ≤ 1500) | +++ (50 < +++ ≤ 100) |  | ++++ (1500 < ++++) | ++++ (100 < ++++) |  | ++++ (75% < ++++) |  | +++ (50% < +++ ≤ 75%) |  |  |  |  |  | +++ (500 < +++ ≤ 1500) | +++ (50 < +++ ≤ 100)
9 | C[C@@]1(Cl)[C@H](O)[C@@H](CO)O[C@H]1n1ccc(=O)[nH]c1=O [Compound 301, 2′-C-Chloro-2′-C-methyluridine] | +++ (500 < +++ ≤ 1500) | +++ (50 < +++ ≤ 100) | > 50 | BLQ | BLQ | > 10 |  |  |  |  |  |  |  |  |  | 
